Test results as given in paper PMC11705763, “Tumor-associated antigen prediction using a single-sample gene expression state inference algorithm” (Cell Reports Methods, 2024).

What was measured:
[1] = tested on: CD8+ T cell cultures / PBMCs from healthy donors; assay: IFN-gamma ELISpot assay; assay type: cell-based, human; parameters: Donor1_value / Donor3_value / Donor4_value: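 Spot-forming units per 100000 cells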; conditions: IFN-gamma ELISpot result; for Donor1_value: healthy donor 1; for Donor2_value: healthy donor 2; for Donor3_value: healthy donor 3; for Donor4_value: healthy donor 4;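 as to Donor2 value: Spot-forming units per 100000 cells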
Excerpt: We experimentally assessed the binding affinity of the 38 peptides through a competitive peptide binding assay (STAR Methods). […] Subsequently, we investigated the immunogenicity of these peptides using an interferon (IFN)-gamma ELISpot assay (STAR Methods). […] These peptides represent promising candidates for further investigation as potential immunotherapy targets. Peripheral blood mononuclear cells (PBMCs) from healthy donors were isolated at Zhongshan Hospital, Fudan University using Lymphoprep (07851, Stemcell) and cultured with ImmunoCult-XF T cell Expansion Medium (10981, Stemcell) supplemented with human recombinant IL-2 (78036, Stemcell). ImmunoCult Human CD3/CD28 T cell Activator (10971, Stemcell) was added to the cell suspension, which was then incubated for 3 days. Subsequent expansion of the cell suspension was carried out every two days as per manufacturer's instructions. The entire process was approved by the Institutional Review Board of Zhongshan Hospital, Fudan University (B2024-412). ELISPOT plates (2110003, […]) were pretreated with PBS before dispensing cell suspensions (nearly 1×10^5 cells) with synthesized peptide (10 μg/mL) into each well. After incubation at 37°C in a CO2 incubator for 20 h, plates were washed and incubated with anti-human IFN-γ followed by Streptavidin-HRP. Staining of Streptavidin-HRP was performed using AEC solution, and the reaction was stopped by rinsing with cold tap water. ELISPOT plates were scanned and counted using an ImmunoSpot plate reader and associated software from Cellular Technologies, Ltd.

[2] = biological target: HLA-A02:01 (Homo sapiens, UniProt P04439, D140Y/D185E/D98H/E176V/E277Q/G131W/G231S/I119V/I121R/I166T/I218V/L300P/L318F/N151K/N90K/P208A/P217A/Q86G/Q94H/R138H/R169H/T345S); assay: Peptide-MHC tetramer exchange assay (competitive peptide binding, QuickSwitch Quant HLA-A02:01 tetramer); conditions: percentage of replacement of the exchangeable peptide by the test peptide

## GLLMPLLGV
[1]
  Donor1_value: 521
  Donor2_value: 32
  Donor3_value: 1
  Donor4_value: 11
[2]
  Q1_Replacement_Percentage: 91.1%

## LLMPLLGVI
[1]
  Donor1_value: 627
  Donor2_value: 0
  Donor3_value: 11
  Donor4_value: 48
[2]
  Q1_Replacement_Percentage: 96.3%

## LVLGTLEEV
[1]
  Donor1_value: 666
  Donor2_value: 17
  Donor3_value: 15
  Donor4_value: 11
[2]
  Q1_Replacement_Percentage: 85.1%

## SLLDLYQLA
[1]
  Donor1_value: 0
  Donor2_value: 1
  Donor3_value: 0
  Donor4_value: 0
[2]
  Q1_Replacement_Percentage: 91.5%

## VIWDVLSGI
[1]
  Donor1_value: 678
  Donor2_value: 0
  Donor3_value: 0
  Donor4_value: 1
[2]
  Q1_Replacement_Percentage: 95.5%

## YVKVLEYVIKV
[1]
  Donor1_value: 0
  Donor2_value: 56
  Donor3_value: 17
  Donor4_value: 0
[2]
  Q1_Replacement_Percentage: 14.7%

## AMLKNTVPI
[1]
  Donor1_value: 0
  Donor2_value: 0
  Donor3_value: 18
  Donor4_value: 0
[2]
  Q1_Replacement_Percentage: 89.9%

## GLAEYLFDKLTL
[1]
  Donor1_value: 584
  Donor2_value: 0
  Donor3_value: 9
  Donor4_value: 0
[2]
  Q1_Replacement_Percentage: 89.8%

## YRLADHVGCV
[1]
  Donor1_value: 0
  Donor2_value: 30
  Donor3_value: 9
  Donor4_value: 0
[2]
  Q1_Replacement_Percentage: 56.3%

## VLLPASLFI
[1]
  Donor1_value: 634
  Donor2_value: 26
  Donor3_value: 0
  Donor4_value: 0
[2]
  Q1_Replacement_Percentage: 94.8%

## RLELVFGL
[1]
  Donor1_value: 0
  Donor2_value: 0
  Donor3_value: 8
  Donor4_value: 0
[2]
  Q1_Replacement_Percentage: 23.4%

## FLLLVDAAVQ
[1]
  Donor1_value: 0
  Donor2_value: 31
  Donor3_value: 16
  Donor4_value: 0
[2]
  Q1_Replacement_Percentage: 29.3%

## ILFGISLREV
[1]
  Donor1_value: 0
  Donor2_value: 24
  Donor3_value: 20
  Donor4_value: 8
[2]
  Q1_Replacement_Percentage: 96.2%

## LLASYNDDDIYL
[1]
  Donor1_value: 426
  Donor2_value: 0
  Donor3_value: 3
  Donor4_value: 8
[2]
  Q1_Replacement_Percentage: 98.2%

## FLRFANYCRI
[1]
  Donor1_value: 0
  Donor2_value: 8
  Donor3_value: 8
  Donor4_value: 0
[2]
  Q1_Replacement_Percentage: 30%

## RKLLMPLLGV
[1]
  Donor1_value: 0
  Donor2_value: 0
  Donor3_value: 16
  Donor4_value: 0
[2]
  Q1_Replacement_Percentage: 22.9%

## FLTSGEDAV
[1]
  Donor1_value: 494
  Donor2_value: 21
  Donor3_value: 0
  Donor4_value: 0
[2]
  Q1_Replacement_Percentage: 98.3%

## FLAKLNNTV
[1]
  Donor1_value: 2
  Donor2_value: 56
  Donor3_value: 18
  Donor4_value: 0
[2]
  Q1_Replacement_Percentage: 88.1%

## QILQDGQFLV
[1]
  Donor1_value: 451
  Donor2_value: 37
  Donor3_value: 0
  Donor4_value: 17
[2]
  Q1_Replacement_Percentage: 94%

## LLQISNWFI
[1]
  Donor1_value: 30
  Donor2_value: 0
  Donor3_value: 30
  Donor4_value: 0
[2]
  Q1_Replacement_Percentage: 32.7%

## FLNEACLFEI
[1]
  Donor1_value: 606
  Donor2_value: 0
  Donor3_value: 7
  Donor4_value: 10
[2]
  Q1_Replacement_Percentage: 92%

## KVLEFLAKL
[1]
  Donor1_value: 545
  Donor2_value: 58
  Donor3_value: 12
  Donor4_value: 0
[2]
  Q1_Replacement_Percentage: 88.2%

## GLLMPLLGVIFL
[1]
  Donor1_value: 4
  Donor2_value: 33
  Donor3_value: 8
  Donor4_value: 0
[2]
  Q1_Replacement_Percentage: 78.9%

## KVADLVGFLL
[1]
  Donor1_value: 570
  Donor2_value: 0
  Donor3_value: 2
  Donor4_value: 0
[2]
  Q1_Replacement_Percentage: 84.3%

## KMKVLEFLAKV
[1]
  Donor1_value: 0
  Donor2_value: 2
  Donor3_value: 18
  Donor4_value: 0
[2]
  Q1_Replacement_Percentage: 42.8%

## YMLWFLLRHV
[1]
  Donor1_value: 0
  Donor2_value: 0
  Donor3_value: 29
  Donor4_value: 0
[2]
  Q1_Replacement_Percentage: 32.4%

## FLYEVFAQL
[1]
  Donor1_value: 654
  Donor2_value: 7
  Donor3_value: 4
  Donor4_value: 0
[2]
  Q1_Replacement_Percentage: 92.7%

## FLWGPRAHSEV
[1]
  Donor1_value: 558
  Donor2_value: 0
  Donor3_value: 10
  Donor4_value: 18
[2]
  Q1_Replacement_Percentage: 90.4%

## YTLDEKVAEL
[1]
  Donor1_value: 640
  Donor2_value: 29
  Donor3_value: 2
  Donor4_value: 0
[2]
  Q1_Replacement_Percentage: 91.1%

## FLSTLTTFI
[1]
  Donor1_value: 0
  Donor2_value: 41
  Donor3_value: 15
  Donor4_value: 0
[2]
  Q1_Replacement_Percentage: 89.1%

## FLLLVDAAV
[1]
  Donor1_value: 571
  Donor2_value: 34
  Donor3_value: 0
  Donor4_value: 12
[2]
  Q1_Replacement_Percentage: 83.5%

## GLLMPLLGVI
[1]
  Donor1_value: 631
  Donor2_value: 10
  Donor3_value: 3
  Donor4_value: 0
[2]
  Q1_Replacement_Percentage: 91.4%

## KLLMPLLGV
[1]
  Donor1_value: 384
  Donor2_value: 0
  Donor3_value: 0
  Donor4_value: 13
[2]
  Q1_Replacement_Percentage: 97.9%

## YLHEQVKTI
[1]
  Donor1_value: 0
  Donor2_value: 59
  Donor3_value: 24
  Donor4_value: 9
[2]
  Q1_Replacement_Percentage: 83.5%

## LQILQDGQFLV
[1]
  Donor1_value: 0
  Donor2_value: 0
  Donor3_value: 32
  Donor4_value: 0
[2]
  Q1_Replacement_Percentage: 81.9%

## YIYDILLPV
[1]
  Donor1_value: 17
  Donor2_value: 54
  Donor3_value: 19
  Donor4_value: 0
[2]
  Q1_Replacement_Percentage: 88.9%

## KVLEYVIKV
[1]
  Donor1_value: 0
  Donor2_value: 23
  Donor3_value: 19
  Donor4_value: 0
[2]
  Q1_Replacement_Percentage: 80.8%

## LLFGLALIEV
[1]
  Donor1_value: 28
  Donor2_value: 42
  Donor3_value: 7
  Donor4_value: 0
